The values below come from PMC10095932 (Molecules, 2023).

Entries after “also recorded” stand apart in the source; their conditions may differ. Read-outs that look alike come from different tables or passages of the source. Where a SMILES comes first, the peptide text is derived from it. Bridges are numbered along the chain shown (N, C = ends).

The conditions of data set [1]: cited from earlier work. The source says: In humans, the NP system consists primarily of three main peptides, A-type or atrial natriuretic peptide (ANP), B-type or brain natriuretic peptide (BNP), and C-type natriuretic peptide (CNP). Distinct variations in the expression levels of each NP correlates strongly with normal physiological and disease conditions. Due to their importance in cardio-renal diseases these peptides have been extensively studied. Structurally, the NP family is characterized by a 17-residue ring structure with a highly conserved internal sequence and variable N- and C-terminal regions. W ...

Data set [2] has as its target T1, rat NPR-A (Rattus norvegicus, UniProt P18910).
T1 construct: endogenous in cells; host or cells: rat PC12 cells
T1 sequence (P18910 29-1057): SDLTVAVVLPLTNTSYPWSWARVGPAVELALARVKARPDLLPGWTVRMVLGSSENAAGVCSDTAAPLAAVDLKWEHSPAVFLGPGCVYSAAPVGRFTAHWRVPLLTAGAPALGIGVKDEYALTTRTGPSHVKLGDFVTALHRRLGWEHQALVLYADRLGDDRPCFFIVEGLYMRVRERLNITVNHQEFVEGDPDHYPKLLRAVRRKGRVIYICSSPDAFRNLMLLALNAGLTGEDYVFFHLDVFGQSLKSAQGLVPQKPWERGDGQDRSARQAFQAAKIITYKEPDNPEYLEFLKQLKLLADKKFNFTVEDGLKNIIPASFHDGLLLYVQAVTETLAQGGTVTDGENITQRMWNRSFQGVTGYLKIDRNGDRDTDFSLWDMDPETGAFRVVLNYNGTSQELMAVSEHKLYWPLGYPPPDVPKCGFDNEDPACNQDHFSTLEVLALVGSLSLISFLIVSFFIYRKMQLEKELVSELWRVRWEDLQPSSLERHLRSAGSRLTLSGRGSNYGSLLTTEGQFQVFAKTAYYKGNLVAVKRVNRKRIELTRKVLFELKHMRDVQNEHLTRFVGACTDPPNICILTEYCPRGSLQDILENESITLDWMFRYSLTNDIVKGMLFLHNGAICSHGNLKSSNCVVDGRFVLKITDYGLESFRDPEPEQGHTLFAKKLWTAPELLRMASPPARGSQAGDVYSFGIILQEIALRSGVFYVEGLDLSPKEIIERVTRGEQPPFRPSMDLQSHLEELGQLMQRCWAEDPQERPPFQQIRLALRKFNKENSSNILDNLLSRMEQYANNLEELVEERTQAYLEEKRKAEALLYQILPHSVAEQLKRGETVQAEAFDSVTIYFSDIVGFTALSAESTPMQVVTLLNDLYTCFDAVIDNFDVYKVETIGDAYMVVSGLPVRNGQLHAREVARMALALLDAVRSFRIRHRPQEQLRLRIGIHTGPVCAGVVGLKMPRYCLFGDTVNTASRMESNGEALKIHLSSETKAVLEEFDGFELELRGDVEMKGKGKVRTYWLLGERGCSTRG
The data set is described as follows: cGMP ALPHAscreen, cGMP production in PC12 cells. Format: cell-based. The settings on record: PC12 cells, cGMP ALPHAscreen. The method, then:
NP activity can be determined by the effectiveness of the peptide to elicit cGMP production through NPR-A. The cGMP ALPHAscreen evaluates the ability of peptides to stimulate cGMP production in cells through a non-radioactive, homogenous, proximity assay which encompasses […]. […] In order to evaluate the potency of TNPa-e at rNPR-A, TNPa-e were evaluated using the cGMP ALPHAscreen in rat PC12 cells.
(§1) Cells were cultured at 5% CO2 and 37 °C. HEK 293 cells were cultured in high glucose DMEM (Gibco, Carlsbad, CA, USA) supplemented with 10% FBS, and 1% penicillin/streptomycin. HEK 293 cells were seeded in media lacking penicillin/streptomycin 24 to 48 h pre-transfection. PC12 cells were cultured in high glucose DMEM (Gibco) supplemented with 10% FBS and 1% penicillin/streptomycin.
(§2) The cGMP ALPHAscreen was performed using the ALPHAscreen Protein A detection kit and the biotinylated cGMP supplement (Perkin Elmer, Waltham, MA, USA) with rabbit anti-cGMP polyclonal antibody (Biovision, Mountain View, CA, USA). Cells were detached from the flask and the resulting pellet was resuspended in stimulation buffer (HBSS supplemented with 0.1% w/v BSA and 1 mM IBMX at 37 °C). Cells were added to a white 384-well Optiplate (Perkin Elmer, Waltham, USA) to 30,000 cells per well for HEK 293 cells and 10,000 cells per well for PC12 cells. Cells were incubated with different concentrations of test peptides (concentration range of 1 × 10^−5 to 1 × 10^−11 M in stimulation buffer) at 37 °C for 30 min. Cells were lysed with lysis buffer (1 M HEPES, 0.3% Tween-20, 1% BSA in H2O, pH 7.4). Then 5 μL acceptor-bead mix was added to each well under subdued lighting conditions, followed by 5 μL of donor-bead mix. Plates were incubated for ~12 h, slowly shaking at room temperature. After incubation, the ALPHAscreen signal was measured using an EnVision plate reader (Perkin Elmer). The standard curve consisted of cGMP in a concentration range of 1 × 10^−6 to 1 × 10^−12 M. All data points were acquired in triplicate and were analyzed using GraphPad Prism 5.0 software (GraphPad Software, Inc., San Diego, CA, USA).
A general note: Bead proximity is the source of the signal in Alpha formats.

Data set [3] has as its target T2, human NPR-A (Homo sapiens, UniProt P16066).
T2 construct: expressed in transfected cells; host or cells: HEK 293 cells, transient, Lipofectamine 2000
T2 sequence (P16066 33-1061): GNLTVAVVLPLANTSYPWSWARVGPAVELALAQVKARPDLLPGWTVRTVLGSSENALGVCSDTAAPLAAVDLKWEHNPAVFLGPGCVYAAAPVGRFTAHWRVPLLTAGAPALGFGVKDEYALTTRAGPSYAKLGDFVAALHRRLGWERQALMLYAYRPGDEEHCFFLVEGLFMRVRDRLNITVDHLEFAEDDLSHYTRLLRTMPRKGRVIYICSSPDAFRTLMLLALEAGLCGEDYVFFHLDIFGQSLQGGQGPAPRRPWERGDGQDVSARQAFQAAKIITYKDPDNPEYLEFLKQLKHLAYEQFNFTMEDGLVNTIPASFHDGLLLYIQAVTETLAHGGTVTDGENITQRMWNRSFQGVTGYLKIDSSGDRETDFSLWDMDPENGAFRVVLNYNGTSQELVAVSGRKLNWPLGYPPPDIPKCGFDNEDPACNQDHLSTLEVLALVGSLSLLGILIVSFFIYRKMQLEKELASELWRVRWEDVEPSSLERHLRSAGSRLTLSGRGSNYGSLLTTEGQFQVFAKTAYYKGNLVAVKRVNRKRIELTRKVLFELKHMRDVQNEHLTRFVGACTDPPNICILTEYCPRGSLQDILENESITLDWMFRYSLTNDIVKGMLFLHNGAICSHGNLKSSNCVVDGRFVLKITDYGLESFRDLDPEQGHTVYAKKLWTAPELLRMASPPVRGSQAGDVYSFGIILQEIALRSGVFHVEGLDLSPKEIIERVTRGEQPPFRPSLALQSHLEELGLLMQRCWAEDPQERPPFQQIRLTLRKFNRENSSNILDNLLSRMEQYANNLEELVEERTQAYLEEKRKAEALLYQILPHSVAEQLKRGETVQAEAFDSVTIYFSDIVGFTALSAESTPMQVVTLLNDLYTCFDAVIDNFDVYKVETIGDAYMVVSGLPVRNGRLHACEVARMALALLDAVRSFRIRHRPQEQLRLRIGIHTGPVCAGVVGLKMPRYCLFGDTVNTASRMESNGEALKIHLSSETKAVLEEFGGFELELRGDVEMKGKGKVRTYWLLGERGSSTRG
The data set can be described thus: cGMP ALPHAscreen, cGMP production in HEK 293 cells transiently overexpressing hNPR-A. Format: cell-based. To be noted: HEK 293 cells overexpressing hNPR-A. The method, then: as §1
HEK 293 cells were transfected using the lipofectamine 2000 transfection protocol (Invitrogen). Cells (95% confluence) were transfected with 45% pcDNA3.1/hNPR-A, 45% pcDNA3.1, and 10% pEGFP-NI to the optimal DNA concentration specified in the protocol. The co-transfection with pEGFP-NI plasmid allowed the determination of the transfection efficiency. This was assessed by the estimation of the number of GFP-expressing cells using an Olympus IX70 inverted fluorescence microscope. Transfected cells were used for assay purposes within 24 h.
as §2

Data set [4] concerns Neutral endopeptidase 24.11 (NEP). The data set can be described thus: 500 ng NEP (activity 400 pmol min^−1 μg^−1) in 100 mM Tris.HCl and 150 mM NaCl (pH 7.4). To be noted: 37 °C, up to 24 h.

Regarding `CC[C@H](C)[C@@H]1NC(=O)[C@H](CCCNC(=N)N)NC(=O)[C@H](CC(=O)O)NC(=O)[C@H](CCSC)NC(=O)[C@H](CCCCN)NC(=O)[C@H](CCCNC(=N)N)NC(=O)CNC(=O)[C@H](Cc2ccccc2)NC(=O)[C@@H](NC(=O)CNC(=O)[C@H](CO)NC(=O)CNC(=O)[C@H](CCC(N)=O)NC(=O)[C@@H](NC(=O)[C@H](CCSC)NC(=O)[C@H](CCCCN)NC(=O)[C@@H]2CCCN2C(=O)[C@@H](N)CO)C(C)C)CSSC[C@@H](C(=O)N[C@@H](CCCCN)C(=O)N[C@H](C(=O)N[C@@H](CC(C)C)C(=O)N[C@@H](CCCN=C(N)N)C(=O)N[C@@H](CCCN=C(N)N)C(=O)N[C@@H](Cc2cnc[nH]2)C(=O)O)C(C)C)NC(=O)CNC(=O)[C@H](CC(C)C)NC(=O)CNC(=O)[C@H](CO)NC(=O)[C@H](CO)NC(=O)[C@H](CO)NC(=O)[C@H](CO)NC1=O` [hBNP], in data set [1], the half-life in plasma is recorded as 22 min. Regarding `CC[C@H](C)[C@@H]1NC(=O)[C@H](CCCNC(=N)N)NC(=O)[C@H](CC(=O)O)NC(=O)[C@H](CCSC)NC(=O)[C@H](CCCNC(=N)N)NC(=O)CNC(=O)CNC(=O)[C@H](Cc2ccccc2)NC(=O)[C@@H](NC(=O)[C@H](CO)NC(=O)[C@H](CO)NC(=O)[C@H](CCCNC(=N)N)NC(=O)[C@H](CCCNC(=N)N)NC(=O)[C@H](CC(C)C)NC(=O)[C@@H](N)CO)CSSC[C@@H](C(=O)N[C@@H](CC(N)=O)C(=O)N[C@@H](CO)C(=O)N[C@@H](Cc2ccccc2)C(=O)N[C@@H](CCCNC(=N)N)C(=O)N[C@@H](Cc2ccc(O)cc2)C(=O)O)NC(=O)CNC(=O)[C@H](CC(C)C)NC(=O)CNC(=O)[C@H](CO)NC(=O)[C@H](CCC(N)=O)NC(=O)[C@H](C)NC(=O)CNC1=O` [hANP, human atrial natriuretic peptide], the half-life in plasma in data set [1] is reported as 3 min. With `CC[C@H](C)[C@H](NC(=O)[C@H](CCCCN)NC(=O)[C@H](CO)NC(=O)[C@H](CC(=O)O)NC(=O)[C@@H](N)CO)C(=O)NCC(=O)N[C@@H](CC(=O)O)C(=O)NCC(=O)N[C@H]1CSSC[C@@H](C(=O)N[C@@H](CC(N)=O)C(=O)N[C@@H](CCCNC(=N)N)C(=O)N2CCC[C@H]2C(=O)N[C@H](C(=O)N[C@@H](CCC(N)=O)C(=O)N[C@@H](CC(N)=O)C(=O)N[C@@H](CCCNC(=N)N)C(=O)N2CCC[C@H]2C(=O)N[C@@H](CCCCN)C(=O)N[C@@H](CCC(N)=O)C(=O)N[C@H](C(=O)N2CCC[C@H]2C(=O)NCC(=O)NCC(=O)N[C@@H](CO)C(=O)O)[C@@H](C)CC)C(C)C)NC(=O)CNC(=O)[C@H](CC(C)C)NC(=O)CNC(=O)[C@H](CO)NC(=O)[C@H](C(C)C)NC(=O)[C@H](CO)NC(=O)CNC(=O)[C@H]([C@@H](C)CC)NC(=O)[C@H](Cc2c[nH]cn2)NC(=O)[C@H](CC(=O)O)NC(=O)[C@H](CC(C)C)NC(=O)[C@@H]2CCCN2C(=O)[C@H](CC(C)C)NC(=O)CNC(=O)[C@H](Cc2ccccc2)NC1=O` [TNPe] (H-SDSKIGDGCFGLPLDHIGSVSGLGCNRPVQNRPKQIPGGS-OH; disulfide 9-25), the EC50 in data set [2] (30 min at 37 °C, three to five separate experiments in triplicate, read-out: rNPR-A EC50 (95% CI), potency to stimulate cGMP production) is 1.8 µM; in data set [2] (read-out: EC50 at rNPR-A), greater than 1 µM; in data set [3] (30 min at 37 °C, cGMP ALPHAscreen, three separate experiments in triplicate, read-out: hNPR-A EC50 (95% CI), potency to stimulate cGMP production), greater than 10 µM. Further, the Emax at 10 µM in data set [3] (HEK293, read-out: cGMP production, % of the maximum response (compared with DNP, hANP, hBNP), at 10 μM) is less than 20%.

SDSKIGNGCFGFPLDRIGSVSGLGCNRIMQNPPKKFSGE: the cleaved bond result in data set [4] was “Lys35-Phe36, major, after 24 h; also recorded: Cys9-Phe10, major, after 24 h; also recorded: Arg27-Ile28, major, after 24 h”.

For orientation: EC50 means the concentration at which the effect is half-maximal.
